Experimental data reported in the NIST ThermoML archive (doi:10.1016/j.jct.2012.11.002).

Conditions: Liquid, Vibrating tube method

CCOC(=O)C(C)O (racemic) [DL-ethyl lactate]
mass density [kg/m3]
Conditions	100 kPa	2500 kPa	5000 kPa	7500 kPa	10000 kPa	20000 kPa	30000 kPa	40000 kPa	50000 kPa	60000 kPa
283.15 K	1045.06	1046.77	1048.51	1050.24	1051.88	1058.39	1064.45	1070.13	1075.5	1080.55
288.15 K	1039.64	1041.39	1043.21	1044.99	1046.74	1053.28	1059.46	1065.24	1070.74	1076.04
293.15 K	1034.25	1036.05	1037.86	1039.7	1041.5	1048.3	1054.58	1060.54	1066.26	1071.55
298.15 K	1028.78	1030.66	1032.56	1034.43	1036.23	1043.21	1049.76	1055.69	1061.53	1066.96
303.15 K	1023.32	1025.21	1027.24	1029.11	1031	1038.26	1044.91	1051.19	1056.95	1062.52
308.15 K	1017.84	1019.82	1021.87	1023.84	1025.7	1033.08	1039.92	1046.28	1052.19	1057.98
313.15 K	1012.33	1014.31	1016.42	1018.41	1020.39	1027.93	1034.97	1041.52	1047.69	1053.46
318.15 K	1006.72	1008.86	1011.01	1013.1	1015.13	1022.87	1030.04	1036.74	1042.96	1048.96
323.15 K	1001.23	1003.36	1005.56	1007.68	1009.78	1017.76	1025.13	1031.99	1038.42	1044.49
328.15 K	995.54	997.8	1000.11	1002.34	1004.46	1012.65	1020.17	1027.16	1033.75	1039.99
333.15 K	989.91	992.19	994.55	996.87	999.06	1007.62	1015.4	1022.5	1029.24	1035.71
338.15 K	984.3	986.71	989.18	991.49	993.65	1002.34	1010.27	1017.75	1024.55	1031.04

CCCCOC(=O)C(C)O (stereo not given) [butyl 2-hydroxypropanoate]
mass density [kg/m3]
Conditions	100 kPa	2500 kPa	5000 kPa	7500 kPa	10000 kPa	20000 kPa	30000 kPa	40000 kPa	50000 kPa	60000 kPa
283.15 K	992.75	994.4	996.14	997.77	999.41	1005.87	1011.69	1017.42	1022.85	1027.71
288.15 K	987.86	989.52	991.32	993.09	994.7	1001.18	1007.12	1012.83	1018.14	1023.26
293.15 K	982.96	984.69	986.5	988.29	990.02	996.69	1002.96	1008.73	1014.33	1019.37
298.15 K	977.96	979.83	981.74	983.49	985.26	992.04	998.37	1004.29	1009.82	1015.17
303.15 K	973.09	974.98	976.81	978.72	980.54	987.67	993.96	1000.06	1005.69	1011.27
308.15 K	967.74	970.01	971.95	973.85	975.59	982.84	989.43	995.62	1001.41	1007.05
313.15 K	963.05	965.11	967.03	969.06	970.96	978.27	985.03	991.43	997.35	1002.99
318.15 K	957.98	960.06	962.11	964.16	966.04	973.62	980.42	986.96	993.12	998.83
323.15 K	952.44	954.61	956.73	958.74	960.79	968.64	975.86	982.37	988.47	994.3
328.15 K	947.31	949.44	951.63	953.79	955.86	963.73	971.08	977.8	984.21	990.17
333.15 K	942.28	944.52	946.72	948.91	951.02	959.28	966.7	973.8	980.2	986.43
338.15 K	937.09	939.39	941.78	943.99	946.05	954.42	962.07	969.19	975.64	982.05

COC(=O)C(C)O (stereo not given) [methyl 2-hydroxypropanoate]
mass density [kg/m3]
Conditions	100 kPa	2500 kPa	5000 kPa	7500 kPa	10000 kPa	20000 kPa	30000 kPa	40000 kPa	50000 kPa	60000 kPa
283.15 K	1104.41	1106	1107.57	1109.14	1110.68	1116.59	1122.23	1127.45	1132.48	1137.4
288.15 K	1098.86	1100.48	1102.13	1103.77	1105.31	1111.55	1117.27	1122.78	1127.98	1132.78
293.15 K	1093.31	1094.99	1096.72	1098.35	1099.92	1106.2	1112.08	1117.65	1122.93	1128.01
298.15 K	1087.76	1089.42	1091.21	1092.88	1094.57	1101.03	1107.23	1112.83	1118.24	1123.43
303.15 K	1082.13	1083.92	1085.75	1087.5	1089.23	1095.82	1101.97	1107.9	1113.44	1118.66
308.15 K	1076.53	1078.32	1080.19	1082	1083.79	1090.68	1097.03	1102.99	1108.63	1114.02
313.15 K	1070.85	1072.76	1074.65	1076.52	1078.39	1085.28	1091.84	1097.99	1103.74	1109.24
318.15 K	1065.11	1067.04	1068.97	1070.94	1072.77	1080.09	1086.77	1093.08	1098.93	1104.49
323.15 K	1059.39	1061.4	1063.43	1065.44	1067.34	1074.67	1081.41	1088	1094.04	1099.76
328.15 K	1053.63	1055.7	1057.77	1059.74	1061.8	1069.41	1076.5	1083.15	1089.4	1095.07
333.15 K	1047.83	1049.97	1052.16	1054.23	1056.23	1064.05	1071.33	1078.01	1084.39	1090.37
338.15 K	1042	1044.15	1046.35	1048.52	1050.63	1058.63	1066.13	1073.12	1079.74	1085.76
